# Molecular target: DDR1 (Homo sapiens (Human), UniProt Q08345)
# Test: Measurement of DDR1 enzyme inhibitory activity (phosphorylation of biotinylated peptide, time-resolved fluorescence)
# Assay type: biochemical
# Conditions: human DDR1 enzyme, biotinylated peptide phosphorylation; read-out: DDR1 enzyme inhibition assay IC50
# Protocol: 1. Measurement of DDR1 Enzyme Inhibitory Activity
# The DDR1 enzyme inhibitory activity was determined with human DDR1 enzyme prepared using the baculovirus expression system, based on the inhibitory activity of phosphorylation of a biotinylated peptide ([…]) by the enzyme. The phosphorylated biotinylated peptide was detected using time-resolved fluorescence, with an anti-phosphorylated tyrosine antibody conjugated with europium cryptate and streptavidin conjugated with XL665 which is a derivative of allophycocyanin.
# Sequence of DDR1 (Q08345 19-913): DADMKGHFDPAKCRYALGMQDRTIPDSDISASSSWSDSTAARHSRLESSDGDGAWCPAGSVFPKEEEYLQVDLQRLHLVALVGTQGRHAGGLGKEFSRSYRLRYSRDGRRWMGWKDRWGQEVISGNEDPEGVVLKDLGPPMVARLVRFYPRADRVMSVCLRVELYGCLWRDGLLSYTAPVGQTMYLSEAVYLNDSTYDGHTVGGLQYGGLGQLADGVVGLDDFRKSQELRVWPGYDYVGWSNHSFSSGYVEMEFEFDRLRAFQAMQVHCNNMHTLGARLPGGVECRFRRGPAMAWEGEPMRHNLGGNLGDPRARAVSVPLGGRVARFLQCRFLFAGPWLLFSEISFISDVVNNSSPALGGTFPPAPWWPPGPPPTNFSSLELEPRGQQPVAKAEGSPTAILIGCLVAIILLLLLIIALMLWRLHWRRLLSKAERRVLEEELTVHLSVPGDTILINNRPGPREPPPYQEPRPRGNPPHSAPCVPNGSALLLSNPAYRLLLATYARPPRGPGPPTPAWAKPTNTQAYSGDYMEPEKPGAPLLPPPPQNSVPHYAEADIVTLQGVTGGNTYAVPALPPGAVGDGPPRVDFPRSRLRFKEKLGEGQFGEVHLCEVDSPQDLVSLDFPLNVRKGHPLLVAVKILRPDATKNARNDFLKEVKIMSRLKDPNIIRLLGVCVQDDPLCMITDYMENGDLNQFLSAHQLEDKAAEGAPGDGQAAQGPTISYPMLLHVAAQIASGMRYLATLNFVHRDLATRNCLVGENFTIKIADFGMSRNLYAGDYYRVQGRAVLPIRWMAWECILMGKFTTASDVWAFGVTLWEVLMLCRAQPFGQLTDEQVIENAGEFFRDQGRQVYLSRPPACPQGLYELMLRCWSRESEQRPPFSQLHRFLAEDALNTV
row,SMILES,IC50 [nM]
1,"CCCSc1ccc(Cl)cc1Nn1cnc2c(Br)cc(C)cc2c1=O [Compound B-3, 8-Bromo-3-(5-chloro-2-propylsulfanylanilino)-6-methylquinazolin-4-one]",140
2,"Cc1cc(Br)c2ncn(Nc3cc(Cl)ccc3S(C)(=O)=O)c(=O)c2c1 [Compound B-2, 8-Bromo-3-(5-chloro-2-methylsulfonylanilino)-6-methylquinazolin-4-one]",160
3,"CCS(=O)(=O)c1ccc(Cl)cc1Nn1cnc2ccc(N)cc2c1=O [Compound A-58, 6-Amino-3-(5-chloro-2-ethylsulfonylanilino)quinazolin-4-one]",4050
4,"CCS(=O)(=O)c1ccc(Cl)cc1Nn1cnc2ncc(Br)cc2c1=O [Compound A-17, 6-Bromo-3-(5-chloro-2-ethylsulfonylanilino)pyrido[2,3-d]pyrimidin-4-one]",270
5,"CCS(=O)(=O)c1ccc(Cl)cc1Nn1cnc2cnc(F)cc2c1=O [Compound A-20, 3-(5-Chloro-2-ethylsulfonylanilino)-6-fluoropyrido[3,4-d]pyrimidin-4-one]",7640
6,"CCS(=O)(=O)c1ccc(Cl)cc1Nn1cnc2cc3c(cc2c1=O)OCCO3 [Compound A-43, 3-(5-Chloro-2-ethylsulfonylanilino)-7,8-dihydro-[1,4]dioxino[2,3-g]quinazolin-4-one]",600
7,"CCSc1ccc(Cl)cc1Nn1cnc2ccc(SC)cc2c1=O [Compound A-48, 3-(5-Chloro-2-ethylsulfanylanilino)-6-methylsulfanylquinazolin-4-one]",200
8,"CCSc1ccc(Cl)cc1Nn1cnc2c(-c3ccc(F)cc3)cc(C)cc2c1=O [Compound A-3, 3-(5-Chloro-2-ethylsulfanylanilino)-8-(4-fluorophenyl)-6-methylquinazolin-4-one]",110
9,"CCS(=O)(=O)c1ccc(Cl)cc1Nn1cnc2ccc(SC)cc2c1=O [Compound A-66, 3-(5-Chloro-2-ethylsulfonylanilino)-6-methylsulfanylquinazolin-4-one]",52
10,"CCS(=O)(=O)c1ccc(Cl)cc1Nn1cnc2ccc(OC)cc2c1=O [Compound A-35, 3-(5-Chloro-2-ethylsulfonylanilino)-6-methoxyquinazolin-4-one]",95
11,"CCS(=O)(=O)c1ccc(Cl)cc1Nn1cnc2cc(Br)c(C(F)F)cc2c1=O [Compound A-6, 7-Bromo-3-(5-chloro-2-ethylsulfonylanilino)-6-(difluoromethyl)quinazolin-4-one]",70
12,"Cc1cc(Br)c2ncn(Nc3cc(Cl)ccc3[S+]([O-])c3ccccc3)c(=O)c2c1 (stereo not shown) [Compound B-13, 3-[2-(Benzenesulfinyl)-5-chloroanilino]-8-bromo-6-methylquinazolin-4-one]",740
13,"CCS(=O)(=O)c1ccc(Cl)cc1Nn1cnc2cnc(Cl)cc2c1=O [Compound A-15, 6-Chloro-3-(5-chloro-2-ethylsulfonylanilino)pyrido[3,4-d]pyrimidin-4-one]",1230
14,"CCS(=O)(=O)c1ccc(Cl)cc1Nn1cnc2c(Br)cc(C)cc2c1=O [Compound A-2, 8-Bromo-3-(5-chloro-2-ethylsulfonylanilino)-6-methylquinazolin-4-one]",40
15,"CCS(=O)(=O)c1ccc(Cl)cc1Nn1cnc2c(I)cc(C(F)(F)F)cc2c1=O [Compound A-13, 3-(5-Chloro-2-ethylsulfonylanilino)-8-iodo-6-(trifluromethyl)quinazolin-4-one]",240
16,"CCSc1ccc(Cl)cc1Nn1cnc2cc(C)c(Br)cc2c1=O [Compound A-7, 6-Bromo-3-(5-chloro-2-ethylsulfanylanilino)-7-methylquinazolin-4-one]",800

# Results, then the compound that gave them:
row,IC50 [nM],SMILES
1,180,"CCSc1ccc(Br)cc1Nn1cnc2c(Br)cc(C(F)(F)F)cc2c1=O [Compound C-25, 8-Bromo-3-(5-bromo-2-ethylsulfanylanilino)-6-(trifluoromethyl)quinazolin-4-one]"
2,240,"C#Cc1ccc(S(=O)(=O)CC)c(Nn2cnc3c(Br)cc(C(F)(F)F)cc3c2=O)c1 [Compound C-37, 8-Bromo-3-(2-ethylsulfonyl-5-ethynylanilino)-6-(trifluoromethyl)quinazolin-4-one]"
3,110,"CCSc1ccc(C#N)cc1Nn1cnc2c(Br)cc(C)cc2c1=O [Compound C-1, 3-[(8-Bromo-6-methyl-4-oxoquinazolin-3-yl)amino]-4-ethylsulfanylbenzonitrile]"
4,400,"CCSc1ccc(Br)cc1Nn1cnc2c(Br)cc(OC(F)(F)F)cc2c1=O [Compound C-23, 8-Bromo-3-(5-bromo-2-ethylsulfanylanilino)-6-(trifluoromethoxy)quinazolin-4-one]"
5,1970,"CCOc1ccc(S(=O)(=O)CC)c(Nn2cnc3c(Br)cc(C(F)(F)F)cc3c2=O)c1 [Compound C-32, 8-Bromo-3-(5-ethoxy-2-ethylsulfonylanilino)-6-(trifluoromethyl)quinazolin-4-one]"
6,430,"CCS(=O)(=O)c1ncc(Cl)cc1Nn1cnc2ccc(C(F)(F)F)cc2c1=O [Compound D-3, 3-[(5-Chloro-2-ethylsulfonylpyridin-3-yl)amino]-6-(trifluoromethyl)quinazolin-4-one]"
7,790,"CCSc1ccc(Cl)cc1Cn1cnc2cc(C)c(I)cc2c1=O [Compound E-7, 3-[(5-Chloro-2-ethylsulfanylphenyl)methyl]-6-iodo-7-methylquinazolin-4-one]"
8,640,"CCSc1ccc(Cl)cc1Cn1cnc2c(Br)cc(C)cc2c1=O [Compound E-1, 8-Bromo-3-[(5-chloro-2-ethylsulfanylphenyl)methyl]-6-methylquinazolin-4-one]"
9,300,"CCS(=O)(=O)c1ccc(F)cc1Nn1cnc2c(Br)cc(C(F)(F)F)cc2c1=O [Compound C-22, 8-Bromo-3-(2-ethylsulfonyl-5-fluoroanilino)-6-(trifluoromethyl)quinazolin-4-one]"
10,490,"CCS(=O)(=O)c1ccc(Cl)cc1Cn1ccc2ccc(OC)cc2c1=O [Compound F-3, 2-[(5-Chloro-2-ethylsulfonylphenyl)methyl]-7-methoxyisoquinolin-1-one]"
11,150,"CCS(=O)(=O)c1ccc(Br)cc1Nn1cnc2c(Br)cc(C(F)(F)F)cc2c1=O [Compound C-26, 8-Bromo-3-(5-bromo-2-ethylsulfonylanilino)-6-(trifluoromethyl)quinazolin-4-one]"
12,1100,"CCS(=O)(=O)c1ccc(Cl)cc1Cn1cnc2cc(C)c(Br)cc2c1=O [Compound E-6, 6-Bromo-3-[(5-chloro-2-ethylsulfonylphenyl)methyl]--7-methylquinazolin-4-one]"
13,280,"C#Cc1ccc(SCC)c(Nn2cnc3c(Br)cc(C(F)(F)F)cc3c2=O)c1 [Compound C-36, 8-Bromo-3-(2-ethylsulfanyl-5-ethynylanilino)-6-(trifluoromethyl)quinazolin-4-one]"

# Same assay, conditions: read-out: DDR1 enzyme inhibition assay IC50
row,IC50 [nM],SMILES
1,140,"CCS(=O)(=O)c1ccc(Cl)cc1Cn1cnc2cc(CN3CC[C@H](N)C3)c(Br)cc2c1=O [Compound J-8, 7-[[(3S)-3-Aminopyrrolidin-1-yl]methyl]-6-bromo-3-[(5-chloro-2-ethylsulfonylphenyl)methyl]quinazolin-4-one]"
2,200,"CCS(=O)(=O)c1ccc(Cl)cc1Cn1cnc2c(Br)c(CN3CCN(C(C)C)CC3)c(Br)cc2c1=O [Compound L-12, 6,8-Dibromo-3-[(5-chloro-2-ethylsulfonylphenyl)methyl]-7-[(4-propan-2-ylpiperazin-1-yl)methyl]quinazolin-4-one]"

# Reference: US10005739B2, “Quinazolinone and isoquinolinone derivative” (CHUGAI SEIYAKU KABUSHIKI KAISHA, priority 2013, dated 2018)
